One experiment has as its target 5-HT2A receptor (Rattus norvegicus, UniProt P14842). Kind of experiment: 5-HT2A competition binding assay ([3H]ketanserin, frontal cortex homogenates). The note with it: read-out: 5-HT2A Ki (95% CI).
The target of another experiment is T1, human 5-HT2C receptor (Homo sapiens, UniProt P28335).
T1 sequence (P28335 33-458): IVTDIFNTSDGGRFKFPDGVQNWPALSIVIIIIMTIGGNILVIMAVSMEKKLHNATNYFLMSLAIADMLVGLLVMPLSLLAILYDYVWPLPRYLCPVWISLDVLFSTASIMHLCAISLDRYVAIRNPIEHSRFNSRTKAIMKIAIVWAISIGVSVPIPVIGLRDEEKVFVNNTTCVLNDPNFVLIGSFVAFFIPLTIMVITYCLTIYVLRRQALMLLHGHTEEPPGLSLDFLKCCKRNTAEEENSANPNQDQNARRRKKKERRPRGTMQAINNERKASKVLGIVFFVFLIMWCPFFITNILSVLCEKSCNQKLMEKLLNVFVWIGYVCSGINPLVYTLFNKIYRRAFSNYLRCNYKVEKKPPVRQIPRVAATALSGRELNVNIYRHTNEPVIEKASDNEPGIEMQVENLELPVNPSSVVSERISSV
Kind of experiment: 5-HT2C competition binding assay ([3H]mesulergine, transfected cell membranes). The note with it: [3H]mesulergine, human 5-HT2C membranes; read-out: 5-HT2C Ki (95% CI).

The subject of a further experiment is mice. Kind of experiment: Forced swim test (FST, Porsolt's test). The class given is in vivo, mouse. As to conditions: 60 min before the test. As to the method: The experiments were carried out, in the Experimental Medicine Center of Medical University of Lublin, on six-week-old naive male Swiss mice, weighing 24–30 g. The mice were housed in cages, five individuals per cage in an environmentally controlled rooms (ambient temperature 22 ± 1 °C; relative humidity 50–60%; 12 h light/dark cycle, lights on at 8:00). Standard laboratory food(LSM-Agropol-Motycz, Lublin, Poland) and filtered water were available ad libitum. All the experimental procedures were carried out, according to the National Institute of Health Guidelines for the Care and Use of Laboratory Animals and to the European Community Council Directive for the Care and Use of Laboratory Animals of 22 September 2010 (2010/63/EU) and approved by the Local Ethics Committee for Animal Experimentation in Lublin. The investigated compounds (Norbo-4, Norbo-8, Norbo-10, Norbo-14, Norbo-18 and Norbo-20) in all tests were administered intraperitoneally (i.p.), dissolved in dimethyl sulfoxide (DMSO, final concentration of 0.1%) and then diluted by aqueous solution of 0.5% methylcellulose (tylose) and injected 60 min before the tests. […] All compounds were given in a volume of 10 mL/kg to mice. The control animals received an equivalent volume of the solvent at the respective time before the tests. All the experiments were conducted in the light phase between 09.00 a.m. and 14.00 p.m. The experiments were performed by an observer unaware of the treatment administered. The experiment was carried out according to the method of Porsolt et al.. Mice were individually placed in a glass cylinder (25 cm high; 10 cm in diameter) containing water maintained at 23–25 °C, and were left there for 6 min. The total duration of immobility was recorded during the last 4 min of a 6-min test session. A mouse was regarded as immobile when it remained floating on the water, making only small movements to keep its head above the water.

A word on the Ki: it is a measure of affinity in units of concentration, obtained from inhibition or displacement.

Entries after “also recorded” stand apart in the source; their conditions may differ.

5-HT2A receptor, sequence (P14842 whole entry): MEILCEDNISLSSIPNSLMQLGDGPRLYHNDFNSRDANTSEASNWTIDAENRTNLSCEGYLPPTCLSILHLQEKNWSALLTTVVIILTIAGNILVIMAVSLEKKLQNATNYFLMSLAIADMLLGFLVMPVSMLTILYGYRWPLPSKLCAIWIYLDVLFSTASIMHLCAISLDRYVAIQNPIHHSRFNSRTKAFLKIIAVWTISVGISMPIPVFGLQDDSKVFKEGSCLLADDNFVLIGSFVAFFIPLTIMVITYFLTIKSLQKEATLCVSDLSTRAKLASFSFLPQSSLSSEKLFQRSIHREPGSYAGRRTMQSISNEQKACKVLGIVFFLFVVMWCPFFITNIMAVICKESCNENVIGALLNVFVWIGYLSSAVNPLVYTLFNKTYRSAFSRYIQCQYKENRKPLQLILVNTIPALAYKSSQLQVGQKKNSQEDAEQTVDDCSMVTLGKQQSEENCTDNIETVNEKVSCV

For the molecule `Cc1cccc(N2CCN(CCCNC(=O)C3CC4C=CC3C4)CC2)c1C` (stereo not drawn) [Norbo-4, endo-N-(3-(4-(2,3-dimethylphenyl)piperazin-1-yl)propyl)bicyclo[2.2.1]hept-5-ene-2-carboxamide], the values for the Ki at 5-HT2A receptor and on human 5-HT2C receptor were 0.0333 µM and 2.09 µM, respectively. The “immobility time in FST” value is listed as “significant reduction in immobility time; also recorded: significant reduction of immobility time” in the experiment on mice (3.75 mg/kg i.p.), “significant reduction in immobility time; also recorded: significant reduction of immobility time” in the experiment with mice (15 mg/kg i.p.) and “significant reduction in immobility time” with mice (30 mg/kg i.p.).

(Values after article PMC9572521, “Synthesis, Docking Studies and Pharmacological Evaluation of Serotoninergic Ligands Containing a 5-Norbornene-2-Carboxamide Nucleus” (Molecules, 2022).)
